Results reported in patent publication US20260306460A1, “COMPOSITION FOR REMOVING AND INHIBITING SENESCENT CELLS, AND USES THEREOF” (LIFECEUTIX CO., LTD., priority 2023, published 2026).
Several values for one entry are separate records, joined by “and”; a condition that tells them apart may be missing. Equal values may be shown once. Read-outs that look alike come from different tables or passages of the source.

Tests used:
[1] = system: naturally aged C57BL6J mice; type: in vivo, mouse
[2] = system: bleomycin-induced scleroderma C57BL6J mice; experiment: Bleomycin scleroderma in mice (p16, COL1A1 mRNA, dermal thickness), Example 24-2, Table 48; type: in vivo, mouse; conditions: daily for 21 days; for p16 mRNA: untreated 100 (±8.8); for Col1a1 mRNA: untreated 100 (±13.2); for Dermal Thickness: untreated 459 (±38.7)
Description: Eight-week-old male C57BL6J mice (KRIBB Laboratory Animal Resource Center) were acclimated to the experimental environment for one week. Then, 100 μl of the anticancer drug bleomyxin (1 mg/ml) was administered subcutaneously every other day to induce scleroderma for more than three weeks. Mice with scleroderma were randomly assigned to experimental and control groups. LX-403 was mixed with a 10% ethanol solution of PEG400 and administered orally at a concentration of 25 mg/kg daily for 21 days or administered directly to the skin at a concentration of 1 μM. LX-1801 was mixed with a solution of 4% DMSO, 30% PEG300, and 5% Tween80 in distilled water and administered subcutaneously at a concentration of 0.4 μM daily for 21 days. LX-2001 was mixed in PBS and administered intradermally at a concentration of 2 μM daily for 21 days. LX-2002 was mixed in distilled water with 4% DMSO, 30% PEG300, and 5% Tween80 and administered intradermally at a concentration of 2 μM daily for 21 days. […] LX-2005 was mixed in distilled water with 4% DMSO, 30% PEG300, and 5% Tween80 and administered intradermally at a concentration of 90 μM daily for 21 days. LX-2007 was mixed in distilled water with 4% DMSO, 30% PEG300, and 5% Tween80 and administered intradermally at a concentration of 90 μM daily for 21 days. […] LX-3002 was mixed with distilled water with 4% DMSO, 30% PEG300, 5% tween80 and administered orally at 10 mg/kg daily for 21 days. […] LX-5411 was mixed with 5% PBS and administered orally at 10 mg/kg daily for 21 days or subcutaneously at 3 μM. LX-5701 was mixed with PBS and administered orally at 360 mg/kg daily for 21 days. LX-6807 was mixed in saline and administered intraperitoneally at a concentration of 1 mg/kg daily for 21 days. The control group was administered only the solution in the same volume. After the end of drug administration, mice were sacrificed in the same manner as in Example 7-2 of WO2023-085787 A1, RNA was extracted from skin tissue, and the synthesized cDNA was used to perform and analyze the mRNA amounts of p16 and collagen (COL1A1) by qRT-PCR (quantitative real-time PCR). In addition, to measure the degree of bleomycin-induced skin hardening, skin frozen sections were stained with H/E (Hematoxylin/Eosin), and the thickness of the dermis was observed under an optical microscope.

[3] = system: naturally aged C57BL6J mice; experiment: Skin aging (dermal thickness, COL1A1 and SDF1 mRNA, hair loss) in naturally aged mice, Example 21-10, Table 25; type: in vivo, mouse; conditions: for Dermal Thickness (μm): mouse, in vivo
Description: (§1) 22-month-old female C57BL6J mice (KRIBB Laboratory Animal Resource Center) were acclimated to the experimental environment for one week, after which the aged mice were randomly assigned to experimental and control groups. Eight-week-old, non-aged mice served as controls. LX-403 was mixed in a 10% ethanol solution of PEG400 and administered orally at a concentration of 25 mg/kg daily for 21 days, or administered to the skin, joints, or eyes at a concentration of 1 μM. LX-1801 was mixed in distilled water with 4% DMSO, 30% PEG300, and 5% Tween80 and administered to the skin, joints, or eyes at a concentration of 0.4 μM daily for 21 days. LX-2001 was mixed in PBS and administered to the skin, joints, or eyes at a concentration of […] daily for 21 days. LX-2002 was mixed in distilled water with 4% DMSO, 30% PEG300, and 5% Tween80 and administered to the skin, joints, or eyes at a concentration of 2 μM daily for 21 days. […] LX-2005 was mixed in distilled water with 4% DMSO, 30% PEG300, and 5% Tween80 and administered to the skin, joints, or eyes at a concentration of 90 μM daily for 21 days. LX-2007 was mixed in distilled water with 4% DMSO, 30% PEG300, and 5% Tween80 and administered to the skin, joints, or eyes at a concentration of 90 μM daily for 21 days. […] LX-3002 was mixed in distilled water with 4% DMSO, 30% PEG300, and 5% Tween80 and administered orally at a concentration of 10 mg/kg daily for 21 days. […] LX-5411 was mixed in 5% PBS and administered orally at a concentration of 10 mg/kg daily for 21 days or administered to the skin, joints, or eyes at a concentration of 3 μM. LX-5701 was mixed in PBS and administered orally at a concentration of 360 mg/kg daily for 21 days. LX-6807 was mixed in saline and administered intraperitoneally at a concentration of 1 mg/kg daily for 21 days. LX-2101 or LX-2102 was mixed in PBS solution with 5% DMSO and administered intraperitoneally at a concentration of 20 mg/kg or 10 mg/kg, respectively, daily for 21 days. The control group received only the solution in the same volume. After the end of drug administration, the methods described in each example below were performed.
Frozen sections of skin tissue were stained with Hematoxylin/Eosin (H/E), and the dermal thickness was observed under an optical microscope. Furthermore, the mRNA levels of collagen (COL1A1), a skin component, and SDF1, which suppresses age-related pigmentation, were measured using qRT-PCR as described in Example 7-2 of WO2023-085787 A1. […] Furthermore, biweekly examinations were performed to assess the onset of hair loss due to aging.

[4] = system: naturally aged C57BL6J mice; experiment: Cataract incidence in naturally aged mice, Example 21-15, Table 30; type: in vivo, mouse; conditions: orally twice a week, 360 mg/kg, until death, untreated aged 83
Description: as §1
Cataracts, which occur with age, are a disease that causes visual impairment due to clouding of the lens and are a major cause of blindness. The mice of Example 21-1 were treated with the test compound mixed in PBS orally twice a week at a concentration of 360 mg/kg. Cataract development was assessed biweekly until death.

[5] = system: NaIO3-induced retinal degenerative C57BL6J mice; experiment: NaIO3 retinal degeneration in mice (p16 mRNA, outer nuclear layer thickness), Example 29, Table 53; type: in vivo, mouse; conditions: daily for 21 days; for Outer nuclear layer thickness: untreated 27.4 (±1.3); for p16 mRNA: untreated 100%
Description: Then, retinal degenerative diseases were induced for more than 7 days by intravenous administration of 20 mg/kg of NaIO3, an oxidizing agent that induces retinal pigment epithelial cell death and retinal degeneration. Mice with retinal degenerative diseases were randomly assigned to experimental and control groups. […] The control group received only the solution in the same volume. […] In addition, frozen sections of the other eye tissue were stained with H/E (Hematoxylin/Eosin), and the thickness of the outer nuclear layer (ORL) was observed under an optical microscope. […] The mRNA amount after aging induction was calculated as 100% and compared with the mRNA amount of p16 after treatment with the test compound.

[6] = system: senescent foreskin cells; experiment: Survival of senescent human cells treated with supernatant (secreted fluid) from death-induced cells, Example 13; type: cell-based; conditions: senescent treated cells; for viability at 30 µM: Homo sapiens, 72 h
[7] = system: HMGN1 secreted from senescent A549 cells; experiment: HMGN1 secretion (ELISA) from senescent A549 cancer cells, Example 12; type: cell-based, human; conditions: senescent untreated = 100%; 30 μM; 90 μM for LX-305, 905, 1302, 1601, 1603, 2003, 2702, 2901, 3106; 270 μM for LX-1103, 2005, 2007;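 further: A549 cells made senescent by doxorubicin exposure, with DMSO-treated cells serving as the non-senescent control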
Description: Cells were treated with doxorubicin or control (DMSO) and cultured.

[8] = after 7 days, 6 mm punch dorsal skin wounds, naturally aged mice, untreated aged 3.2 (±0.4)
[9] = naturally aged mice, untreated aged = 100
[10] = skin, naturally aged mice, untreated aged = 1
[11] = Table 8, supernatant from dying senescent cells treated at 30, 90 or 270 μM (as Example 11)

In the case of `Cc1cccc([C@H](C)c2cnc[nH]2)c1C` [LX-6807, Dexmedetomidine], the “Wound size (mm)” value [1, 8] is reported as 1.7 (±0.1) mm, the “p16 mRNA” value [2] is reported as 64.7 (±3.5) % and the “Col1a1 mRNA” value [2] is reported as 37.6 (±2.5) %. For the same compound, the “Dermal Thickness” value [2] was 315 (±29.8) μm, the “Dermal Thickness (μm)” value [3] was 267 (±22.4) μm and the “Relative area of hair loss (%)” value [3, 9] was 72 (±3.8) %. The “Col1a1 mRNA (Fold)” value [3, 10] was 3.2 (±0.2) Fold, the “SDF1 mRNA (fold)” value [3, 10] was 2.1 (±0.2) fold and the “Cataract incidence (%)” value [4] was 61%. For the same compound, the “Outer nuclear layer thickness” value [5] was 50.8 (±3.2) μm and the “p16 mRNA” value [5] was 64 (±4.4) %.

`C#CC(=O)N1[C@@H](CCCC)Cc2cc(OC)ccc2[C@@H]1c1ccc(NC23CC4CC(CC(C4)C2)C3)cc1` [LX-5411] was tested, and the “Wound size (mm)” value [1, 8] was 1.6 (±0.1) mm, the “p16 mRNA” value [2] was 43.8 (±3.0) % and the “Col1a1 mRNA” value [2] was 55.3 (±1.6) %. The “Dermal Thickness” value [2] was 376 (±47.1) μm, the “Dermal Thickness (μm)” value [3] was 231 (±27.1) μm and the “Relative area of hair loss (%)” value [3, 9] was 64 (±4.8) %. For the same compound, the “Col1a1 mRNA (Fold)” value [3, 10] was 2.7 (±0.1) Fold, the “SDF1 mRNA (fold)” value [3, 10] was 2.3 (±0.2) fold and the “Cataract incidence (%)” value [4] was 61%. For the same compound, the “Outer nuclear layer thickness” value [5] was 43.7 (±4.2) μm and the “p16 mRNA” value [5] was 43 (±2.5) %.

In the case of `CC1(C)CC[C@]2(NC(=O)C(C)(F)F)CC[C@]3(C)[C@H](C(=O)C=C4[C@@]5(C)C=C(C#N)C(=O)C(C)(C)[C@@H]5CC[C@]43C)[C@@H]2C1` [LX-2101, Omaveloxolone], the “Wound size (mm)” value [1, 8] is reported as 1.9 (±0.3) mm, the Survival [6, 11] is reported as 39.7 and the “Dermal Thickness (μm)” value [3] is reported as 224 (±11.1) μm and 251 (±15.1) μm. The “Relative area of hair loss (%)” value [3, 9] was 82 (±8.9) %, the “Col1a1 mRNA (Fold)” value [3, 10] was 2.5 (±0.2) Fold and the “SDF1 mRNA (fold)” value [3, 10] was 1.4 (±0.3) fold. For the same compound, the “Col1a1 mRNA (Fold)” value ([3]; topical) was 2.2 (±0.2) Fold, the “Relative area of hair loss (%)” value ([3]; topical) was 79 (±4.1) % and the “SDF1 mRNA (fold)” value ([3]; topical) was 1.9 (±0.3) fold. For the same compound, the HMGN1 [7] was 297%, the “Cataract incidence (%)” value [4] was 77% and the “Outer nuclear layer thickness” value [5] was 29.4 (±7.5) μm and 39 (±4.1) μm. The “p16 mRNA” value [5] was 80 (±2.7) % and 67 (±7.0) %.

For `O=C1C2CCN(CC2)C1CNC(=O)C(F)(F)F` (stereo not shown) [LX-5701], the “Wound size (mm)” value ([1]; mouse, in vivo) was 1.9 (±0.2) mm, the “p16 mRNA” value [2] was 64 (±9.4) % and the “Col1a1 mRNA” value [2] was 59.7 (±17.3) %. The “Dermal Thickness” value [2] was 358 (±21.4) μm, the “Dermal Thickness (μm)” value [3] was 239 (±16.4) μm and the “Relative area of hair loss (%)” value [3, 9] was 71 (±8.4) %. For the same compound, the “Col1a1 mRNA (Fold)” value [3, 10] was 1.9 (±0.1) Fold, the “SDF1 mRNA (fold)” value [3, 10] was 1.7 (±0.3) fold and the “Cataract incidence (%)” value [4] was 64%. For the same compound, the “Outer nuclear layer thickness” value [5] was 52.7 (±3.2) μm and the “p16 mRNA” value [5] was 67 (±7.3) %.

With `S=C(N/N=C1\CCCc2cccnc21)N1CCN(c2ccccn2)CC1` [LX-801] the Survival [6, 11] was 52.7 and the HMGN1 [7] was 329%.

`COC(=O)[C@H]1Cc2c([nH]c3ccccc23)[C@H](c2ccc(S(C)(=O)=O)cc2)N1C(=O)CCl` [LX-5401, methyl (1S,3R)-2-(2-chloroacetyl)-1-(4-(methylsulfonyl)phenyl)-2,3,4,9-tetrahydro-1H-pyrido[3,4-b]indole-3-carboxylate] was tested, and the “Wound size (mm)” value [1, 8] was 2.3 (±0.3) mm, the “p16 mRNA” value [2] was 61.2 (±6.7) % and the “Col1a1 mRNA” value [2] was 74.6 (±2.4) %. For the same compound, the “Dermal Thickness” value [2] was 401 (±46.3) μm, the “Dermal Thickness (μm)” value [3] was 222 (±26.3) μm and the “Cataract incidence (%)” value [4] was 69%.

`COC(=O)[C@]12CCC(C)(C)C[C@H]1[C@H]1C(=O)C=C3[C@@]4(C)C=C(C#N)C(=O)C(C)(C)[C@@H]4CC[C@@]3(C)[C@]1(C)CC2` [LX-2102, Bardoxolone methyl] was tested, and the wound/damage healing improvement ([1]; mouse, in vivo) was “damage treatment and recovery”, the Survival [6, 11] was 46.3 and the “Dermal Thickness (μm)” value [3] was 234 (±9.6) μm. The “Col1a1 mRNA (Fold)” value ([3]; topical) was 2.0 (±0.2) Fold, the “Relative area of hair loss (%)” value ([3]; topical) was 89 (±7.5) % and the “SDF1 mRNA (fold)” value ([3]; topical) was 1.3 (±0.1) fold. The HMGN1 [7] was 233%.

For `CCCC\C=C/C=C/C=C\CCCCCCCC(=O)O` [LX-2707, Punicic acid], the “Wound size (mm)” value [1, 8] was 2.7 (±0.3) mm, the “p16 mRNA” value [2] was 67.5 (±4.7) % and the “Col1a1 mRNA” value [2] was 64.1 (±2.0) %. For the same compound, the “Dermal Thickness” value [2] was 389 (±23.6) μm, the “Dermal Thickness (μm)” value [3] was 237 (±19.4) μm and the “Cataract incidence (%)” value [4] was 48%. For the same compound, the “Outer nuclear layer thickness” value [5] was 31.8 (±1.7) μm and the “p16 mRNA” value [5] was 76 (±5.4) %.

With `COC(=O)c1ccc([C@H]2c3[nH]c4ccccc4c3C[C@H](C(=O)OC)N2C(=O)CCl)cc1` [LX-405] the viability at 30 µM ([6]; supernatant from death-induced proliferating cells, 3 days) was 41.3%, the viability at 30 µM ([6]; supernatant from death-induced senescent cells, 3 days) was 52.7% and the Survival ([6]; supernatant from No Cells, 3 days) was 102.8 (±4.6) %. For the same compound, the HMGN1 [7] was 310%.
